Measurements reported in BindingDB's records for doi:10.1016/j.ejmech.2018.08.073 (Indian Csir-Central Drug Research Institute, 2018).

Target: T1, Histone deacetylase 6 (Homo sapiens, UniProt Q9UBN7)
T1 sequence (Q9UBN7 whole entry): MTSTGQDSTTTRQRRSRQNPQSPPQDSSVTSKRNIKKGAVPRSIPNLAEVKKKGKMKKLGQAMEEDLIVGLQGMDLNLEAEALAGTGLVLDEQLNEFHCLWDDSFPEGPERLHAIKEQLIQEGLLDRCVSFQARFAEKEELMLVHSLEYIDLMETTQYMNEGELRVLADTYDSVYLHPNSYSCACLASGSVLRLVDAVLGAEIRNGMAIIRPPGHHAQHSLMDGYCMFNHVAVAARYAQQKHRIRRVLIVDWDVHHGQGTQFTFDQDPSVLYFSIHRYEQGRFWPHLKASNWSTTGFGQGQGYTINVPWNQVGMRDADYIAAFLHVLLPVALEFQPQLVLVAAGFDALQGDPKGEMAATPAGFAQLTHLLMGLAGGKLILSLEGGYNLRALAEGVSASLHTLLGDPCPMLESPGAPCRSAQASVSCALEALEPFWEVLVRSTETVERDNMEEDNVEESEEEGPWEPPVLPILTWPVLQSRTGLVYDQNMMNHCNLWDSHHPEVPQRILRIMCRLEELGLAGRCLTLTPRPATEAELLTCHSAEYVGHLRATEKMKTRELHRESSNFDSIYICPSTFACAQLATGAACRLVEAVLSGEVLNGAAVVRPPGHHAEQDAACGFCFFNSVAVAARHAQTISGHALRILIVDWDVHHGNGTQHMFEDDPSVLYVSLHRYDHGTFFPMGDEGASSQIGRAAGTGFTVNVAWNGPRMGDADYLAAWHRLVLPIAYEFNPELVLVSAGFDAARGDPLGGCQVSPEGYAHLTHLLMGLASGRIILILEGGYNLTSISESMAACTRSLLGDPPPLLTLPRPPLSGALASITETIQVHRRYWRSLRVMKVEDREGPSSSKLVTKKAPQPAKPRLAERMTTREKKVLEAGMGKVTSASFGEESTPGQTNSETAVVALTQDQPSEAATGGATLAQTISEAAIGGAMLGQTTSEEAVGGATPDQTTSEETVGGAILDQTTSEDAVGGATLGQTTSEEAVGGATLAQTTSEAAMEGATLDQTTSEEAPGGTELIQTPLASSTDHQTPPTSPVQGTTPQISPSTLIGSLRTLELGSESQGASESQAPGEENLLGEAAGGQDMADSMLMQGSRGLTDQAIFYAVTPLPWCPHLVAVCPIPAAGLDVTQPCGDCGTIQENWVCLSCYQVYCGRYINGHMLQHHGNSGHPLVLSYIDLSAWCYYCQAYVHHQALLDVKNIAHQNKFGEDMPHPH
Experiment: Inhibition of recombinant full-length human N-terminal GST-tagged HDAC6 expressed in baculovirus infected Sf9 insect cells using fluorescent-labelled Arg-His-Lys-Lys(Ac) as substrate measured after 2 hrs by fluorescence assay

- IC50: 1.5 nM
SMILES: Cc1c(CN)c2ccccc2n1-c1ccc(C(=O)NO)cc1
